From patent US7056450B2, “Highly concentrated aqueous solutions of N,N-dialkyl-glycines and process for preparation thereof” (Showa Denko K.K., priority 2001, dated 2006)

Experiment: Standing test of aqueous solution for crystalline deposit
Type: physicochemical

Row | Structure (SMILES) | crystalline deposit on standing (aqueous 30% by mass solution, left standing at room temperature) | crystalline deposit on standing (aqueous 60% by mass solution, left standing at 0° C. for 10 days)
1 | CN(C)CC(=O)[O-].[Na+] [N,N-dimethylglycine sodium salt] | crystalline N,N-dimethylglycine sodium salt deposited | 
2 | CN(C)CC(=O)O [N,N-dimethylglycine] |  | no crystalline deposit was observed
